Assay results from US20250002471A1 (Gilead Sciences, Inc., priority 2020, published 2025).

Assays:
TLR9 = molecular target: T1, TLR9 (Homo sapiens, UniProt Q9NR96); test: Human PBMC cell-based assay, TLR9 agonist ODN-2216 stimulation, cytokine (IL-6 and IFNα) readout; conditions: human PBMCs, ODN-2216 3 μM, 6 hours; Table 26; read-out: TLR-9 EC50
T1 construct: lymphocytes, monocytes and dendritic cells that express TLR7, TLR8 and TLR9; endogenous in cells; host or cells: human PBMCs from healthy donors
T1 sequence (Q9NR96 26-1032): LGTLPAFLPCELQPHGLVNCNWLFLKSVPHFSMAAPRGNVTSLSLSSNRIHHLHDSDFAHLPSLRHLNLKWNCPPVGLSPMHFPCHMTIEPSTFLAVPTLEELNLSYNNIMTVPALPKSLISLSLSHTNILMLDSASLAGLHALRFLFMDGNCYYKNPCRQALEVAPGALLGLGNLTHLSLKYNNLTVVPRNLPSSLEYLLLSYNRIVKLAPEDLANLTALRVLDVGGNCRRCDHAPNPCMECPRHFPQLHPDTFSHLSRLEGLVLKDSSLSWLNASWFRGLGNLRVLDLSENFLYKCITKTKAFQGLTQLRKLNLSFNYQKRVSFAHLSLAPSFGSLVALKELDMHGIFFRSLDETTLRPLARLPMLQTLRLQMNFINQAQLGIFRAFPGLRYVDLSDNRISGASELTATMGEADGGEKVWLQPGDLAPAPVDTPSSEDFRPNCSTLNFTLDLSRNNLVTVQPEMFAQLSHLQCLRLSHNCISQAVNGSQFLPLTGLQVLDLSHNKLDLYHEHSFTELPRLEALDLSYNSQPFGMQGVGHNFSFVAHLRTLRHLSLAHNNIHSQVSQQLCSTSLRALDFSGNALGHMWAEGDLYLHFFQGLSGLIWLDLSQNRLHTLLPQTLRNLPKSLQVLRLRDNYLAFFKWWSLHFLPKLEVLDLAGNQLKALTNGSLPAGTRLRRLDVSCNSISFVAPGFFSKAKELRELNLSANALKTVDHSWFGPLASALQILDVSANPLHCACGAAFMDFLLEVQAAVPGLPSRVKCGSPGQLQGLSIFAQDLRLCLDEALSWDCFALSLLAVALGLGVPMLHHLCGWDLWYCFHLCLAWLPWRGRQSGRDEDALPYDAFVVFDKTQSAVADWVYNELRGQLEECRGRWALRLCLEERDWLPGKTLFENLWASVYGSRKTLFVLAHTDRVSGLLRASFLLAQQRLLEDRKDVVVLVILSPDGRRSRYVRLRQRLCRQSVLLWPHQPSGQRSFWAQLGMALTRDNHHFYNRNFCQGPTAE
In short: (§1)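 Readout is IL-6 and IFNα in supernatants, quantified by electrochemiluminescence, with EC50 from a sigmoidal fit of cytokine versus concentration. Healthy-donor human PBMCs, 100,000 per well, got antagonist for 1 h at 37 °C, then 6 h agonist exposure: TLR7 via GS-986 at 400 nM final, TLR9 via ODN-2216 at 3 μM final.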

TLR7 = molecular target: T2, TLR7 (Homo sapiens, UniProt Q9NYK1); test: Human PBMC cell-based assay, TLR7 agonist GS-986 stimulation, cytokine (IL-6 and IFNα) readout; conditions: human PBMCs, GS-986 400 nM, 6 hours; Table 26; read-out: TLR-7 EC50
T2 construct: lymphocytes, monocytes and dendritic cells that express TLR7, TLR8 and TLR9; endogenous in cells; host or cells: human PBMCs from healthy donors
T2 sequence (Q9NYK1 27-1049): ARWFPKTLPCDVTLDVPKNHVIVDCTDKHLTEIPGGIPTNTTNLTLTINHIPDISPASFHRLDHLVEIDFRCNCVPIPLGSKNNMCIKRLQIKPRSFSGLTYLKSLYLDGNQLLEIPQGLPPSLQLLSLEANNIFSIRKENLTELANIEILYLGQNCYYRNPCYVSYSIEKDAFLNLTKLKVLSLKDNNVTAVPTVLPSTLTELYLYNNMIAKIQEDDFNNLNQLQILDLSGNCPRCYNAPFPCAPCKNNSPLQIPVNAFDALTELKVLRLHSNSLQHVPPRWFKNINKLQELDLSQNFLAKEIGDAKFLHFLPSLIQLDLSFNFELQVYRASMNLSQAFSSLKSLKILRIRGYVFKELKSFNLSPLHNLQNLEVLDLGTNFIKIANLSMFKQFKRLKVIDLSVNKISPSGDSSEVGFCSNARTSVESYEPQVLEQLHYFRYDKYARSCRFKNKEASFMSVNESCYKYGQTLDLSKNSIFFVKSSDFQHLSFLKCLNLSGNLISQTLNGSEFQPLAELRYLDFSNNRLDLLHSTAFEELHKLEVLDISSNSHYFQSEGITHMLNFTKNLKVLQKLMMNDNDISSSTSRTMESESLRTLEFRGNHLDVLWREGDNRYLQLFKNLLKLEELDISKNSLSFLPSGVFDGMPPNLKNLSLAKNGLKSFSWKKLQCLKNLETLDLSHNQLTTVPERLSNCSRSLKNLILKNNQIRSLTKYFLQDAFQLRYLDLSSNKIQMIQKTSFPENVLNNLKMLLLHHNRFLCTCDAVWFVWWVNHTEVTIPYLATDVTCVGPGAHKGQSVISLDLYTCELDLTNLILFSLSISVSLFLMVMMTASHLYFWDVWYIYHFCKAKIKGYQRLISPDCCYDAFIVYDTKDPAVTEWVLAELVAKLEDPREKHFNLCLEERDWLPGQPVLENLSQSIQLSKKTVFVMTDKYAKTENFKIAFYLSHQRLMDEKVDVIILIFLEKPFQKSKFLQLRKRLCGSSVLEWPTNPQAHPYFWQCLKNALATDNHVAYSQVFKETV
In short: as §1

SMILES | EC50 (TLR9) [nM] | EC50 (TLR7) [nM]
Cc1cc(-c2[nH]c3cc(-c4ccnc(N5CCOCC5)c4)ccc3c2C)cc(C)n1 [Example 59, 4-(4-(2-(2,6-dimethylpyridin-4-yl)-3-methyl-1H-indol-6-yl)pyridin-2-yl)morpholine] | 1780 | 809
Cc1cc(-c2[nH]c3cc(-c4ccc(N5C[C@H]6CC[C@@H](C5)[C@H]6N)nc4)ccc3c2C)cc(C)n1 [Example 27] | 55.2 | 196
Cc1cc(-c2[nH]c3cc(-c4ccc(N5CCNC6(CC6)C5)nc4)ccc3c2C)cc(C)n1 [Example 22, 6-(6-(4,7-diazaspiro[2.5]octan-7-yl)pyridin-3-yl)-2-(2,6-dimethylpyridin-4-yl)-3-methyl-1H-indole] | 153 | 64.4
Cc1cc(-c2[nH]c3cc(-c4ccc(N5CC[C@H](N)C5)nc4)ccc3c2C)cc(C)n1 [Example 32] | 37.3 | 17.7
Cc1cc(-c2[nH]c3cc(-c4ccc(N5CCN(CCO)CC5)nc4)ccc3c2C2CC2)cc(C)n1 [Example 143] | 124 | 3.4
Cc1c(-c2cc(C)c3ncnn3c2)[nH]c2cc(C3CCNCC3)ccc12 [Example 51] | 1670 | 35.8
Cc1cc(-c2[nH]c3cc(-c4ccc(N5CCN(C(=O)C67CNC(C6)C7)CC5)nc4)ccc3c2C)cc(C)n1 [Example 140] | 42.3 | 30.5
Cc1cc(-c2[nH]c3cc(-c4ccc(N5CCNCC5)nc4)ncc3c2C)cc(C)n1 [Example 151] | 537 | 867
CCc1c(-c2cc(C)c3ncnn3c2)[nH]c2cc(C3CCNCC3)ccc12 [Example 52] | 1920 | 12
Cc1cc(-c2[nH]c3cc(-c4ccc5[nH]c(C6CCNCC6)nc5c4)ccc3c2C)cc(C)n1 [Example 147, 5-[2-(2,6-dimethyl-4-pyridyl)-3-methyl-1H-indol-6-yl]-2-(4-piperidyl)-1H-benzimidazole] | 1350 | > 1000
Cc1cc(-c2[nH]c3cc(-c4ccc(C(=O)N5CC[C@H](N)C5)cc4)ccc3c2C)cc(C)n1 [Example 120, (S)-(3-aminopyrrolidin-1-yl)(4-(2-(2,6-dimethylpyridin-4-yl)-3-methyl-1H-indol-6-yl)phenyl)methanone] | 89.5 | 152
Cc1cc(-c2[nH]c3cc(-c4ccc(N5CCN(C(=O)[C@@H]6CCCN6)CC5)nc4)ccc3c2C)cc(C)n1 [Example 135] | 41.3 | 73.9
Cc1cc(-c2[nH]c3cc(-c4ccc(N5CCC[C@@H](N)C5)nc4)ccc3c2C)cc(C)n1 [Example 25] | 39.1 | 5.9
Cc1cc(-c2[nH]c3cc(-c4ccc(N5CCN(C(=O)CN(C)C)CC5)nc4)ccc3c2C)cc(C)n1 [Example 106, 2-(dimethylamino)-1-(4-(5-(2-(2,6-dimethylpyridin-4-yl)-3-methyl-1H-indol-6-yl)pyridin-2-yl)piperazin-1-yl)ethan-1-one] | 18.2 | 39.8
Cc1c(-c2cn(C)c(=O)c3ccccc23)[nH]c2cc(-c3ccc(N4CCNCC4)nc3)ccc12 [Example 92] | 1680 | 664
Cc1cc(-c2[nH]c3cc(-c4ccnc(N(C)C)c4)ccc3c2C)cc(C)n1 [Example 61] | 601 | 886
Cc1cc(-c2[nH]c3cc(C(=O)NC4CCNCC4)ccc3c2C)cc(C)n1 [Example 178, 2-(2,6-dimethylpyridin-4-yl)-3-methyl-N-(piperidin-4-yl)-1H-indole-6-carboxamide] | 1880 | > 1000

SMILES | EC50 (TLR9) [nM] | EC50 (TLR7) [nM]
Cc1c(-c2ccc(C#N)c3ncccc23)[nH]c2cc(-c3ccc(N4CCNCC4)nc3)ccc12 [Example 97] | 733 | 2.6
Cc1cncc(-c2[nH]c3cc(-c4ccc(N5CCNCC5)nc4)ccc3c2C)n1 [Example 98] | 1520 | 1130
Cc1cc(-c2[nH]c3cc(-c4cnn(C5CCNC5)c4)ccc3c2C)cc(C)n1 (stereo not drawn) [Example 17] | 73.6 | 124
Cc1cc(-c2[nH]c3cc(-c4ccnc(N5CCN(C)CC5)c4)ccc3c2C)cc(C)n1 [Example 60, 2-(2,6-dimethylpyridin-4-yl)-3-methyl-6-(2-(4-methylpiperazin-1-yl)pyridin-4-yl)-1H-indole] | 110 | 270
COc1ccc(-c2[nH]c3cc(-c4ccc(N5CCNCC5)nc4)ccc3c2C)cc1OC [Example 81] | 758 | 34.4
Cc1cc(-c2[nH]c3cc(-c4cccc5c4CCNC5)ccc3c2C)cc(C)n1 [Example 62, 5-(2-(2,6-dimethylpyridin-4-yl)-3-methyl-1H-indol-6-yl)-1,2,3,4-tetrahydroisoquinoline] | 180 | 607
Cc1cc(-c2[nH]c3cc(-c4ccn5ccnc5c4)ccc3c2C)cc(C)n1 [Example 57] | 306 | 200
Cc1cc(-c2[nH]c3cc(-c4ccc(N5CCN(C(=O)[C@@H]6COCCN6)CC5)nc4)ccc3c2C)cc(C)n1 [Example 110] | 63.6 | 32.2
Cc1cc(-c2[nH]c3cc(-c4ccc(N5CCNCC5)nc4)ccc3c2C)ccn1 [Example 73, 3-methyl-2-(2-methylpyridin-4-yl)-6-(6-(piperazin-1-yl)pyridin-3-yl)-1H-indole] | 102 | 33.3
Cc1cc(-c2[nH]c3cc(-c4cccc(S(=O)(=O)N5CCNCC5)c4)ccc3c2C)cc(C)n1 [Example 69] | 38.4 | 209
Cc1cc(-c2[nH]c3cc(-c4ccc(N5CCNCC5)cc4)ccc3c2C)cc(C)n1 [Example 66] | 51.2 | 83.2
Cc1cc(-c2[nH]c3cc(-c4ccc(N5CCN(CCO)C(=O)C5)nc4)ccc3c2C)cc(C)n1 [Example 39] | 310 | 26.4
Cc1c(-c2ccnc(C#N)c2)[nH]c2cc(-c3ccc(N4CCNCC4)nc3)ccc12 [Example 75] | 499 | 77.3
Cc1cc(-c2[nH]c3cc(-c4ccc(N5CCNCC5)nc4)ccc3c2C)c2cccnc2n1 [Example 99] | 548 | 1.8
Cc1cc(-c2[nH]c3cc(-c4ccc(N5CC[C@@H](NCCO)C5)nc4)ccc3c2C)cc(C)n1 [Example 130, (R)-2-((1-(5-(2-(2,6-dimethylpyridin-4-yl)-3-methyl-1H-indol-6-yl)pyridin-2-yl)pyrrolidin-3-yl)amino)ethan-1-ol] | 18.2 | 16.3
Cc1cc(-c2[nH]c3cc(-c4cnn5c4CNCC5)ccc3c2C)cc(C)n1 [Example 10] | 392 | 210
